According to article PMC4300089, “Structure-Guided Design of Selective Epac1 and Epac2 Agonists” (PLoS Biology, 2015):

Assays:
PKA = test: Cellular PKA activity: P-VASP band shift in U2OS Epac1 and Epac2 cell lines; assay type: cell-based; conditions: for rel. P-VASP: PKA, average of Epac1 and Epac2 cell lines, relative to induction with forskolin and IBMX, Fig. 6C; for activation of PKA in cells: U2OS cell lines
Description: (§1) Rap•GTP levels were determined by precipitating GTP-bound Rap specifically from cell lysates and subsequent western Blotting with an α-Rap antibody (Santa Cruz Biotechnology). To generate stable cell lines, U2OS cells were transfected with pBabe-Flag-Epac1 (Epac1, homo sapiens, amino acids 1–881) or pBabe-Flag-Epac2 (Epac2, mus musculus, amino acids 1–993), selected for Epac expression and maintained under selection with 2 mg/l puromycin. The cells were cultured according to standard protocols. The activity of PKA was determined by western blotting with a monoclonal α-VASP antibody (BD Transduction Laboratories). Blots were developed by enhanced chemiluminescence (ECL) and the use of X-ray films; for quantification films were scanned. The intensities of the Rap•GTP bands and the upper band of VASP (P-VASP) were determined for each condition in ImageJ and normalized to the stimulation with forskolin and IBMX for each blot.

Epac1 [1] = biological target: T1, Epac1 (Homo sapiens, UniProt O95398); test: Cellular Epac activity: Rap•GTP levels in U2OS cells stably expressing Epac1; assay type: cell-based; conditions: for rel. RapGTP: relative to induction with forskolin and IBMX, Fig. 6C
T1 construct: pBabe-Flag-Epac1 (Epac1, homo sapiens, amino acids 1–881); expressed in transfected cells; host or cells: U2OS
T1 sequence (O95398 1-881 isoform O95398-3): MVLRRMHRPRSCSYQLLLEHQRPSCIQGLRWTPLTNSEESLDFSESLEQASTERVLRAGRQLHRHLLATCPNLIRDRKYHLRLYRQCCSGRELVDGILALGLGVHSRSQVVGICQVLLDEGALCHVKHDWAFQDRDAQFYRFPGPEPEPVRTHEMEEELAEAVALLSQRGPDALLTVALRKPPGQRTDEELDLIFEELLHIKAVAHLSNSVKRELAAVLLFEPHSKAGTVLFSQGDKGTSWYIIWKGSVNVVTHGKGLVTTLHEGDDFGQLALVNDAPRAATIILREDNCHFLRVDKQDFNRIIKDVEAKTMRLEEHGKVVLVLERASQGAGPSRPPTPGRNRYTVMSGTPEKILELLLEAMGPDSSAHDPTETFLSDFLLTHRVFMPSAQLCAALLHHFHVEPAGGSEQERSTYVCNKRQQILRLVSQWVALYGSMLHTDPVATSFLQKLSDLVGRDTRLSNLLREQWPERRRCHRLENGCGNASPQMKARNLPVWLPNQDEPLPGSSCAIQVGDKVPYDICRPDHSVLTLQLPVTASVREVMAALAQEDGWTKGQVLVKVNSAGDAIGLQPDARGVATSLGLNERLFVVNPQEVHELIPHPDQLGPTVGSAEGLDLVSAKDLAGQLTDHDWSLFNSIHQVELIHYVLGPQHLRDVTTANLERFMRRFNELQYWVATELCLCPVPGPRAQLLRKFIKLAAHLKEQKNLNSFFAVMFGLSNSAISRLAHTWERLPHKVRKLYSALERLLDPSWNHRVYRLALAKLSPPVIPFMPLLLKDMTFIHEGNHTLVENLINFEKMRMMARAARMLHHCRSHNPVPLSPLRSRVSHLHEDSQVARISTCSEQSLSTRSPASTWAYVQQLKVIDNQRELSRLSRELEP
Description: as §1

Epac1 [2] = biological target: T2, Epac1 (Homo sapiens, UniProt O95398); test: Epac activation assay, Epac1; assay type: biochemical
T2 construct: made in house
T2 sequence (O95398 150-881 isoform O95398-3): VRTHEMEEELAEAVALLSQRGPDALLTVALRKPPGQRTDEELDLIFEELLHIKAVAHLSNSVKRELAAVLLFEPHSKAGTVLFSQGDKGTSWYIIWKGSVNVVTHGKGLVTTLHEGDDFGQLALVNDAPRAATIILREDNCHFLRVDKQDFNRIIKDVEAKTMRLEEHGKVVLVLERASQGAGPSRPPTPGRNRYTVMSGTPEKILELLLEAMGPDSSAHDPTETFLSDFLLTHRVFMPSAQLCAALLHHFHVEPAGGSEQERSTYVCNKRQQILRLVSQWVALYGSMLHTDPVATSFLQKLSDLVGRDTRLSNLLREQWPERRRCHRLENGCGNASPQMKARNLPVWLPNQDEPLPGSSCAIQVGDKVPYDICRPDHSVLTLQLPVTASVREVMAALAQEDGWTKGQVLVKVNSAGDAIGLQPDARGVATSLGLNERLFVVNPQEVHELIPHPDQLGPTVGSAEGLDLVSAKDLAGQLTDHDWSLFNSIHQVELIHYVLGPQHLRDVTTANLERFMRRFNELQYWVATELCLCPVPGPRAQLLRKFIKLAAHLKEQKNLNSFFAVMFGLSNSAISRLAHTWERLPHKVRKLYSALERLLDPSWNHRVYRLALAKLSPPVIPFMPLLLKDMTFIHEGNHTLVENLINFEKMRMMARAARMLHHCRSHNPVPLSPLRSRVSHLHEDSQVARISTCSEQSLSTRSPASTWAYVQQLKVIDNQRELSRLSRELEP

Row | SMILES | rel. P-VASP (PKA) | rel. RapGTP (Epac1 [1]) | kobs (Epac1 [2]; 0.01 μM compound) [s⁻¹] | kobs (Epac1 [2]; 0.3 μM compound) [s⁻¹] | kobs (Epac1 [2]; 0.5 μM compound) [s⁻¹] | kobs (Epac1 [2]; 0.8 μM compound) [s⁻¹] | kobs (Epac1 [2]; 1 μM compound) [s⁻¹] | kobs (Epac1 [2]; 2 μM compound) [s⁻¹] | kobs (Epac1 [2]; 3 μM compound) [s⁻¹] | kobs (Epac1 [2]; 4 μM compound) [s⁻¹] | kobs (Epac1 [2]; 5 μM compound) [s⁻¹] | kobs (Epac1 [2]; 6 μM compound) [s⁻¹] | kobs (Epac1 [2]; 7 μM compound) [s⁻¹] | kobs (Epac1 [2]; 20 μM compound) [s⁻¹] | kobs (Epac1 [2]; 30 μM compound) [s⁻¹] | kobs (Epac1 [2]; 40 μM compound) [s⁻¹] | kobs (Epac1 [2]; 50 μM compound) [s⁻¹] | kobs (Epac1 [2]; 60 μM compound) [s⁻¹] | kobs (Epac1 [2]; 70 μM compound) [s⁻¹] | kobs (Epac1 [2]; 80 μM compound) [s⁻¹] | also measured
1 | Nc1ncnc2c1nc(Sc1ccc(Cl)cc1)n2[C@@H]1O[C@@H]2COP(=O)(O)O[C@H]2[C@H]1O [L-026, 8-pCPT-cAMP] | 0.9052 | 1.1255 | – | – | – | – | – | – | – | – | – | – | – | – | – | – | – | – | – | – | –
2 | Nc1ncnc2c1nc(SCc1ccccc1)n2[C@@H]1O[C@@H]2CO[P@](O)(=S)O[C@H]2[C@H]1O [S-220, Sp-8-BnT-cAMPS] | 0.1961 | 0.6097 | 1.6e-05 | 2e-05 | 2.2e-05 | 2.8e-05 | 4.3e-05 | 5.8e-05 | 7.9e-05 | 9.2e-05 | 0.000102 | 0.000128 | 0.000149 | 0.000263 | 0.000312 | 0.00033 | 0.000328 | 0.000336 | 0.000338 | 0.000331 | activation of PKA in cells (PKA): very low; kobs (Epac1 [2]; 0.05 μM compound): 1.5e-05 s⁻¹; kobs (Epac1 [2]; 0.08 μM compound): 1.6e-05 s⁻¹; kobs (Epac1 [2]; 0.1 μM compound): 1.7e-05 s⁻¹; kobs (Epac1 [2]; 0.2 μM compound): 1.7e-05 s⁻¹; kobs (Epac1 [2]; 0.6 μM compound): 2.5e-05 s⁻¹; kobs (Epac1 [2]; 0.7 μM compound): 2.7e-05 s⁻¹; kobs (Epac1 [2]; 8 μM compound): 0.000153 s⁻¹; kobs (Epac1 [2]; 10 μM compound): 0.000213 s⁻¹; AC50 (Epac1 [2]; Epac1): 13 µM; ability to reach half-maximal cAMP activity (Epac1 [2]; Epac1): cannot activate Epac1 to the level of half-maximal cAMP-activity; Rel. kmax (Epac1 [2]; Epac1, maximal activity relative to cAMP): 0.3; activation of Epac1 in cells (Epac1 [1]): only minor effects
3 | COC1C2OP(=O)(O)OCC2OC1n1c(Sc2ccc(Cl)cc2)nc2c(N)ncnc21 [D-007, 8-pCPT-2′-O-Me-cAMP, reference compound] | 0.1351 | 1.65 | 4.6e-05 | 0.000569 | 0.000822 | 0.00123 | 0.00137 | 0.00219 | 0.00266 | 0.00283 | 0.00293 | 0.00312 | 0.00321 | 0.00351 | 0.00364 | 0.00378 | 0.00348 | 0.00363 | 0.0036 | 0.00359 | activation of PKA in cells (PKA): only minor effects; kobs (Epac1 [2]; 0.05 μM compound): 0.000133 s⁻¹; kobs (Epac1 [2]; 0.08 μM compound): 0.000193 s⁻¹; kobs (Epac1 [2]; 0.1 μM compound): 0.000213 s⁻¹; kobs (Epac1 [2]; 0.2 μM compound): 0.000391 s⁻¹; kobs (Epac1 [2]; 0.4 μM compound): 0.000728 s⁻¹; kobs (Epac1 [2]; 0.6 μM compound): 0.000999 s⁻¹; kobs (Epac1 [2]; 0.7 μM compound): 0.00113 s⁻¹; kobs (Epac1 [2]; 8 μM compound): 0.00328 s⁻¹; kobs (Epac1 [2]; 100 μM compound): 0.00349 s⁻¹; potency relative to cAMP by activation potential (times more potently than cAMP) (Epac1 [2]; Epac1): 100 times; activation of Epac1 in cells (Epac1 [1]): strongly activated
4 | Nc1ncnc2c1ncn2[C@@H]1O[C@@H]2COP(=O)(O)O[C@H]2[C@H]1O [cAMP, reference compound] | – | – | 1.1e-05 | 3e-05 | 3.8e-05 | 4.7e-05 | 5e-05 | 6.1e-05 | 9.3e-05 | 0.000116 | 0.000161 | 0.000161 | 0.000189 | 0.000421 | 0.000589 | 0.000692 | 0.000746 | 0.000796 | 0.000848 | 0.000859 | kobs (Epac1 [2]; 0.05 μM compound): 1.4e-05 s⁻¹; kobs (Epac1 [2]; 0.08 μM compound): 2.5e-05 s⁻¹; kobs (Epac1 [2]; 0.1 μM compound): 2.8e-05 s⁻¹; kobs (Epac1 [2]; 8 μM compound): 0.00021 s⁻¹; kobs (Epac1 [2]; 10 μM compound): 0.000256 s⁻¹; kobs (Epac1 [2]; 100 μM compound): 0.000937 s⁻¹; kobs (Epac1 [2]; 200 μM compound): 0.00112 s⁻¹; kobs (Epac1 [2]; 400 μM compound): 0.0012 s⁻¹; kobs (Epac1 [2]; 600 μM compound): 0.00116 s⁻¹; kobs (Epac1 [2]; 800 μM compound): 0.00118 s⁻¹; share of cAMP bound protein still in an inactive conformation (Epac1 [2]; Epac1, assuming the most efficient activators shift the equilibrium fully): about 65%
5 | Cc1ccc(CSc2nc3c(N)ncnc3n2[C@@H]2O[C@@H]3CO[P@](O)(=S)O[C@H]3[C@H]2O)cc1 [S-230, Sp-8-pMeBnT-cAMPS] | – | – | – | 1e-05 | 1e-05 | 1.1e-05 | 1.4e-05 | 2.1e-05 | 2.6e-05 | 3e-05 | 3.3e-05 | 3.8e-05 | 4.1e-05 | 9.4e-05 | 0.000115 | 0.000131 | 0.000148 | 0.000156 | 0.000164 | 0.00017 | kobs (Epac1 [2]; 10 μM compound): 5.6e-05 s⁻¹; kobs (Epac1 [2]; 100 μM compound): 0.000198 s⁻¹; kobs (Epac1 [2]; 200 μM compound): 0.000232 s⁻¹; kobs (Epac1 [2]; 400 μM compound): 0.000232 s⁻¹; kobs (Epac1 [2]; 600 μM compound): 0.000218 s⁻¹; kobs (Epac1 [2]; 800 μM compound): 0.000186 s⁻¹
